# According to publication PMC8364686, “Safety, tolerability, pharmacokinetics and pharmacodynamics of single oral doses of BI 187004, an inhibitor of 11beta-hydroxysteroid dehydrogenase-1, in healthy male volunteers with overweight or obesity” (Clinical Diabetes and Endocrinology, 2021):
# Experiment: Plasma pharmacokinetics of BI 187004 after single oral doses (LC–MS/MS)
# Details: male, human, plasma, po; for concentration at 10 h: planned time 10 h; for concentration at 12 h: planned time 12 h; for concentration at 36 h: planned time 36 h; for concentration at 48 h: planned time 48 h; for concentration at 72 h: planned time 72 h; for concentration at 96 h: planned time 96 h; for concentration at 0.5 h: planned time 0.5 h; for concentration at 1 h: planned time 1 h; for concentration at 1.5 h: planned time 1.5 h; for concentration at 2 h: planned time 2 h; for concentration at 2.5 h: planned time 2.5 h; for concentration at 3 h: planned time 3 h; for concentration at 4 h: planned time 4 h; for concentration at 5 h: planned time 5 h; for concentration at 6 h: planned time 6 h; for concentration at 8 h: planned time 8 h
# [1] = 40 mg, BI 187004 plasma concentrations, 40 mg single oral, Max
# [2] = 40 mg, BI 187004 plasma concentrations, 40 mg single oral, Mean
# [3] = 40 mg, BI 187004 plasma concentrations, 40 mg single oral, Median
# [4] = 40 mg, BI 187004 plasma concentrations, 40 mg single oral, Min
# [5] = 40 mg, BI 187004 plasma concentrations, 40 mg single oral, gMean
# [6] = 80 mg, BI 187004 plasma concentrations, 80 mg single oral, Max
# [7] = 80 mg, BI 187004 plasma concentrations, 80 mg single oral, Mean
# [8] = 80 mg, BI 187004 plasma concentrations, 80 mg single oral, Median
# [9] = 80 mg, BI 187004 plasma concentrations, 80 mg single oral, Min
# [10] = 80 mg, BI 187004 plasma concentrations, 80 mg single oral, gMean
smiles,measurement,setting,value
N#Cc1ccc2c(c1)[C@H]1CCCN(C(=O)c3ccc4[nH]cnc4c3)[C@H]1C2 [BI 187004],concentration at 10 h,[1],1140 nM
same,concentration at 10 h,[2],825 nM
same,concentration at 10 h,[3],815 nM
same,concentration at 10 h,[4],467 nM
same,concentration at 10 h,[5],796 nM
same,concentration at 12 h,[1],984 nM
same,concentration at 12 h,[2],683 nM
same,concentration at 12 h,[3],690 nM
same,concentration at 12 h,[4],359 nM
same,concentration at 12 h,[5],650 nM
same,concentration at 24 h,"40 mg, BI 187004 plasma concentrations, 40 mg single oral, planned time 24 h, Max",625 nM
same,concentration at 24 h,"40 mg, BI 187004 plasma concentrations, 40 mg single oral, planned time 24 h, Mean",353 nM
same,concentration at 24 h,"40 mg, BI 187004 plasma concentrations, 40 mg single oral, planned time 24 h, Median",335 nM
same,concentration at 24 h,"40 mg, BI 187004 plasma concentrations, 40 mg single oral, planned time 24 h, Min",169 nM
same,concentration at 24 h,"40 mg, BI 187004 plasma concentrations, 40 mg single oral, planned time 24 h, gMean",321 nM
same,concentration at 36 h,[1],377 nM
same,concentration at 36 h,[2],163 nM
same,concentration at 36 h,[3],119 nM
same,concentration at 36 h,[4],51.5 nM
same,concentration at 36 h,[5],129 nM
same,concentration at 48 h,[1],234 nM
same,concentration at 48 h,[2],95.6 nM
same,concentration at 48 h,[3],66.2 nM
same,concentration at 48 h,[4],30.8 nM
same,concentration at 48 h,[5],73 nM
same,concentration at 72 h,[1],83.4 nM
same,concentration at 72 h,[2],32 nM
same,concentration at 72 h,[3],22.1 nM
same,concentration at 72 h,[4],8.48 nM
same,concentration at 72 h,[5],24.3 nM
same,concentration at 96 h,[1],41.4 nM
same,concentration at 96 h,[2],15.5 nM
same,concentration at 96 h,[3],11.1 nM
same,concentration at 96 h,[4],5.05 nM
same,concentration at 96 h,[5],12.2 nM
same,concentration at 24 h,"40 mg, C24 gMean (%gCV), 40 mg single oral dose",321 nM
same,AUC(0-inf),80 mg,51.1 µM·h
same,AUC(0-t),80 mg,43.1 µM·h
same,Cmax,80 mg,2460 nM
same,Tmax,80 mg,2.25 h
same,Vd/F,80 mg,113 L
same,half-life,80 mg,17.1 h
same,concentration at 0.5 h,[6],4480 nM
same,concentration at 0.5 h,[7],1780 nM
same,concentration at 0.5 h,[8],1020 nM
same,concentration at 0.5 h,[9],304 nM
same,concentration at 0.5 h,[10],1150 nM
same,concentration at 1 h,[6],4770 nM
same,concentration at 1 h,[7],2490 nM
same,concentration at 1 h,[8],2300 nM
same,concentration at 1 h,[9],771 nM
same,concentration at 1 h,[10],2120 nM
same,concentration at 1.5 h,[6],4150 nM
same,concentration at 1.5 h,[7],2500 nM
same,concentration at 1.5 h,[8],2540 nM
same,concentration at 1.5 h,[9],958 nM
same,concentration at 1.5 h,[10],2220 nM
same,concentration at 2 h,[6],3590 nM
same,concentration at 2 h,[7],2330 nM
same,concentration at 2 h,[8],2400 nM
same,concentration at 2 h,[9],1000 nM
same,concentration at 2 h,[10],2130 nM
same,concentration at 2.5 h,[6],3200 nM
same,concentration at 2.5 h,[7],2350 nM
same,concentration at 2.5 h,[8],2650 nM
same,concentration at 2.5 h,[9],1200 nM
same,concentration at 2.5 h,[10],2200 nM
same,concentration at 3 h,[6],3340 nM
same,concentration at 3 h,[7],2240 nM
same,concentration at 3 h,[8],2470 nM
same,concentration at 3 h,[9],1050 nM
same,concentration at 3 h,[10],2070 nM
same,concentration at 4 h,[6],3200 nM
same,concentration at 4 h,[7],2200 nM
same,concentration at 4 h,[8],2460 nM
same,concentration at 4 h,[9],936 nM
same,concentration at 4 h,[10],2020 nM
same,concentration at 5 h,[6],3210 nM
same,concentration at 5 h,[7],1980 nM
same,concentration at 5 h,[8],2040 nM
same,concentration at 5 h,[9],905 nM
same,concentration at 5 h,[10],1840 nM
same,concentration at 6 h,[6],2460 nM
same,concentration at 6 h,[7],1740 nM
same,concentration at 6 h,[8],1870 nM
same,concentration at 6 h,[9],930 nM
same,concentration at 6 h,[10],1650 nM
same,concentration at 8 h,[6],2840 nM
same,concentration at 8 h,[7],1820 nM
same,concentration at 8 h,[8],1690 nM
same,concentration at 8 h,[9],1100 nM
same,concentration at 8 h,[10],1740 nM
same,concentration at 10 h,[6],2570 nM
same,concentration at 10 h,[7],1600 nM
same,concentration at 10 h,[8],1460 nM
same,concentration at 10 h,[9],1040 nM
same,concentration at 10 h,[10],1530 nM
same,concentration at 12 h,[6],2210 nM
same,concentration at 12 h,[7],1380 nM
same,concentration at 12 h,[8],1210 nM
same,concentration at 12 h,[9],959 nM
same,concentration at 12 h,[10],1320 nM
same,concentration at 24 h,"80 mg, BI 187004 plasma concentrations, 80 mg single oral, planned time 24 h, Max",1560 nM
same,concentration at 24 h,"80 mg, BI 187004 plasma concentrations, 80 mg single oral, planned time 24 h, Mean",927 nM
